Measurements as given in patent US6423729B1, “Therapeutic or prophylactic agent for glomerulopathy” (Shionogi & Co., Ltd., priority 1997, dated 2002).

Assays:
MMP-9 = target: T1, MMP-9 (Homo sapiens, UniProt P14780); test: Assay for inhibitory activity against MMP-9; type: biochemical
T1 construct: made in house; host or cells: HT1080 human fibrosarcoma cells; endogenous protein secreted after TPA treatment and purified from conditioned medium
Method: (§1) Assay for Inhibitory Activities of MMP-9 and MMP-2
(§2) The enzymatic activity was analyzed on the method described by Knight, C. G., et al. (C. Graham Knight., Frances Willenbrock and Gillian Murphy: A novel coumarin-labelled peptide for sensitive continuous assays of the matrix metalloproteinases. FEBS Lett., 296 (1992) 263-266).
MMP-9 was purified by using a combination of procedures described in previous reports as follows. Yasunori Okada, Yukio Gonoji, Katsumi Naka, Katsuro Tomita, Isao Nakanishi, Kazushi Iwata and Taro Hayakawa: Matrix metalloproteinase 9 (92-kDa gelatinase/type IV collagenase) from HT1080 human fibrosarcoma cells. Purification and activation of the precursor and enzymic properties. J. Biol. Chem., 267 (1992) 21712-21719. Yasunori Okada, Tatsuhisa Morodomi, Jan J, Enghild, Ko Suzuki, Atsushi Yasui, Isao Nakanishi, Guy Salvesen and Hideaki Nagase: Matrix metalloproteinase 2 from human rheumatoid synovial fibroblasts. Purification and activation of the precursor and enzymic properties. Eur. J. Biochem. 194 (1990) 721-730. Robin V Ward, Rosalind M Hembry, John J Reynolds and Gillian Murphy: The purification of tissue inhibitor of metalloproteinase-2 from its 72 kDa progelatinase complex. Biochem. J. 278 (1991) 179-187.
Briefly, human fibrosarcoma ATCC HT1080 cell line was cultured to confluent in Dulbecco's Modified Medium (DMEM) containing 10% fetal-calf serum at 37° C. for 48 hours. Subsequently, the medium of confluent culture was changed to serum-free DMEM medium. To obtain MMP-9, Phorbol-12-myristate-13-acetate (TPA) must be added to this serum-free DMEM medium at a concentration of 50 ng/ml. The TPA treated medium was centrifuged at 3000 rpm for 15 min and the supernatant was concentrated to 450 ml by a Toyo-Roshi UP-20 apparatus with an ultrafiltration membrane. Then, proMMP-9 in this concentrated solution was purified by using columns of Gelatin-Sepharose and Concanavalin A-Sepharose. The pool containing proMMP-9 was dialyzed, concentrated (Toyo-Roshi UP-20) and applied to columns of Sephacryl S-200 and Green A matrix for the separation from TIMPs. The obtained proMMP-9 fraction was activated by TPCK-Trypsin (final conc. […] reaction mix.) for the assay.
(§3) MOCAc-Pro-Leu-Gly-Leu-A2pr(Dnp)-Ala-Arg-NH2 as a substrate was purchased from Petide Institute(Osaka pref., Japan). This substrate was dissolved in DMSO at a concentration of 1 mM.
(§4) Reaction buffer consists of 50 mM Tris-HCl buffer (pH 7.5) containing 10 mM CaCl2, 0.3 M NaCl, 0.005% Brij35 and 0.01% NaN3.
Assay Method of Inhibitory Activity Against MMP-9:
(§5) 1.0 μl of a tested compound in DMSO is added to 48.0 μl of a reaction buffer containing 0.08 μl of an enzyme solution. After standing for 60 minutes at room temperature, the reaction was started by adding 1.0 μl of a substrate solution. After incubation for 60 minutes at room temperature, 100 μl of 3% (v/v) AcOH for reaction stopping and measured a fluorescence with excitation and emission at 320 nm and 405 nm, respectively (Spectrophotofluorometer; Fluoroscan Ascent (Labsystem)).
(§6) The measurement of the inhibitory activities (IC50) was carried out in a following four methods;
(§7) A) Reaction with substrate, enzyme and inhibitor
(§8) B) Reaction with substrate and inhibitor, without enzyme
(§9) C) Reaction with substrate and enzyme, without inhibitor
(§10) D) Reaction with substrate only
(§11) IC50 values were calculated by using a following formula and each fluorescence values of above four methods (A to D).
(§12) % inhibition={1−(A−B)/(C−D)}×100
(§13) IC50 means the concentration required to inhibit 50% of the enzyme activity.

MMP-2 = target: T2, MMP-2 (Homo sapiens, UniProt P08253); test: Assay for inhibitory activity against MMP-2; type: biochemical
T2 construct: purchased Yagai (Yamagata pref., Japan)
T2 sequence (P08253 110-660): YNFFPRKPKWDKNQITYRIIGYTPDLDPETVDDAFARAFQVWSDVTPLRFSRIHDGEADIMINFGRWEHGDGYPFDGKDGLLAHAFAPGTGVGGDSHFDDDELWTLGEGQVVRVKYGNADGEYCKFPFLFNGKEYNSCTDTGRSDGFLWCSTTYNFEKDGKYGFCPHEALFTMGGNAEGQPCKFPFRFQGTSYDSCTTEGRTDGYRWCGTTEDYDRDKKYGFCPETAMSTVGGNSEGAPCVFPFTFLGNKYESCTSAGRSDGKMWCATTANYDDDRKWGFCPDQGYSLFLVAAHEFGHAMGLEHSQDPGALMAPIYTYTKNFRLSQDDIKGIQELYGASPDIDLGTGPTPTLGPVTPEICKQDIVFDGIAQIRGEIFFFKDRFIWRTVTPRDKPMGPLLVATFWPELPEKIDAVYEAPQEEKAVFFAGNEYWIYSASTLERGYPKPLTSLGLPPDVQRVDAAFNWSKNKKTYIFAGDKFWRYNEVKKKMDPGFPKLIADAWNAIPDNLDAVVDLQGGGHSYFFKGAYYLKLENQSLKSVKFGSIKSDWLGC
Method: as §1, §2
MMP-2 was purchased from Yagai (Yamagata pref., Japan).
as §3, §4
Assay Method of Inhibitory Activity Against MMP-2:
as §5, with “0.05” for “0.08”
as §6, §7, §8, §9, §10, §11, §12, §13

[1] = test system: E30 monoclonal antibody-induced glomerulonephritis in Slc-Wistar rats; test: Urinary protein excretion in E30 monoclonal antibody-induced glomerulonephritis rats; type: in vivo, rat; settings: urinary protein excretion on day 2 after E30 injection, compound-treated vs vehicle-treated group, oral, 100 mg once a day, first dose 2 hours before E30
Method: Five to eight weeks old male Slc-Wistar rats were used in the experiment.
In order to induce glomerulonephritis, E30 of 20 to 500 μg, preferably 50 to 200 μg, is intravenously injected to rats of five to eight weeks old. Test compounds of 0.1 to 500 mg, preferably 1 to 200 mg, are suspended with 3 to 10%, preferably 4 to 6%, gum arabic solution and the like, and are orally given 1 to 5 hours, preferably 1.5 to 3 hours, prior to E30 injection. Constant amount of test compounds are then consecutively given 1 to 3 times a day. Evaluation of test compounds are determined by the amount of urinary protein excretion 2 days after E30 injection when proteinuria reaches to the maximum level.
Determination of the amount of urinary protein excretion is performed by the collection of 24-hour urine samples with stainless metabolic cages followed by the measurement of the concentration of urinary protein. Blood samples obtained at the follow-up period are processed for the determination of blood urea nitrogen and plasma creatinine, which indicate renal function. As a marker of damaged renal tubules, urinary amounts of N-acetyl-D-glycosaminidase excretion is measured. Furthermore, to study the inhibitory effects of compounds on mesangial proliferation following E30 injection, the number of PCNA (proliferating cell nuclear antigen) positive cells per single glomerulus is counted. Morphological changes are observed with light and electron microscopy.
5-week-old male Slc-Wistar rats were reared under the conditions of room temperature of 25° C., 40-60% humidity and 12 hour cycles of light and darkness and fed on solid chow (CA-1, Clea Japan) and tap water ad libitum. After one week's preliminary rearing, each rat was housed in a stainless metabolic cage for acclimation for one week, and was used for experiment at 7 weeks of old (body weight: 150-180 g). E30 monoclonal antibody (J.J.N., vol. 36, p106, 1994) was diluted with saline at 100 μg/0.4 ml and was administered from tail vein at the volume of 0.4 ml/body. Compound (2) was suspended with 5% gum arabic solution and was given at the dose of 100 mg 2 hours before E30 injection. Subsequently, compound (2) of 100 mg was orally administered once a day from the next day. The rats were housed in stainless metabolic cages just after the administration of test compound, and then 24-hour urine samples were collected. After measuring the volume, the urine was centrifuged at 3000 rpm for 10 min at room temperature. […] Urinary protein was determined by pyrogallole red method (Micro TP-test Wako, Wako Zyunyaku). The amount of urinary protein excretion on day 2 in compound-treated group was compared with that in vehicle-treated one, and inhibitory ratio of urinary protein excretion was calculated. […]

T1 sequence (P14780 107-707 limits assumed): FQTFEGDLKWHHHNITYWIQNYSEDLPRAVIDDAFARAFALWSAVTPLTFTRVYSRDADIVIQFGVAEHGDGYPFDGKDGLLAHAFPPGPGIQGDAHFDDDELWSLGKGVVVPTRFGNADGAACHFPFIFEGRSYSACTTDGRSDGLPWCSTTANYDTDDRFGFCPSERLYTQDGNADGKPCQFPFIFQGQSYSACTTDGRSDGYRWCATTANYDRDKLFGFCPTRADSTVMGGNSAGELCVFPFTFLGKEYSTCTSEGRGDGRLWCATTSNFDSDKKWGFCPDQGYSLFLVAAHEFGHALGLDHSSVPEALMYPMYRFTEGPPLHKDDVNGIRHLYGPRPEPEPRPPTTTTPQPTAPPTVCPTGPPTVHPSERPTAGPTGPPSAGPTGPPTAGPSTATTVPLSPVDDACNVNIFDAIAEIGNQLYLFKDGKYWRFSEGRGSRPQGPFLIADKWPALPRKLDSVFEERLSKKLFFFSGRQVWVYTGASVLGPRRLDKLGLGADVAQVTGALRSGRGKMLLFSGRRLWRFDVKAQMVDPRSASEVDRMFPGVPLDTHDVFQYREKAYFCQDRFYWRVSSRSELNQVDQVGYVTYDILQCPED

## Cc1ccc(C#Cc2ccc(S(=O)(=O)N[C@H](Cc3ccccc3)C(=O)O)s2)s1 [Compound 87]
MMP-9
  IC50: 10 nM
MMP-2
  IC50: 3.69 nM
other
  melting point: 158 to 160 °C

## Cc1ccc(-n2nnc(-c3ccc(S(=O)(=O)N[C@H](Cc4ccccc4)C(=O)O)s3)n2)cc1 [Compound 95]
[1]
  Inhibitory rate (%) of urinary protein excretion: 21%
MMP-9
  IC50: 19 nM
MMP-2
  IC50: 10.7 nM
other
  melting point: 166 to 169 °C

## Cc1ccc(-n2nnc(-c3ccc(S(=O)(=O)N[C@@H](C(=O)O)C(C)C)s3)n2)cc1 [Compound 96]
MMP-9
  IC50: 36.2 nM
MMP-2
  IC50: 1.5 nM
other
  melting point: 178 to 179 °C

## CC(C)[C@@H](NS(=O)(=O)c1ccc(-c2nnn(-c3ccc(F)cc3)n2)s1)C(=O)O [Compound 97]
MMP-9
  IC50: 136 nM
MMP-2
  IC50: 15.6 nM
other
  melting point: 184 to 186 °C

## CC(C)[C@@H](NS(=O)(=O)c1ccc(-c2ncc(-c3ccccc3)o2)s1)C(=O)O [Compound 98]
MMP-9
  IC50: 787 nM
MMP-2
  IC50: 95.3 nM
other
  melting point: 220 to 223 °C

## Cc1ccc(-c2ccc(-c3ccc(S(=O)(=O)N[C@@H](C(=O)O)C(C)C)cc3)s2)cc1 [Compound 103]
MMP-9
  IC50: 27.8 nM
MMP-2
  IC50: 6.12 nM

## CC(C)[C@@H](NS(=O)(=O)c1ccc(-n2nnc(-c3ccc(C(F)(F)F)cc3)n2)cc1)C(=O)O [Compound 104]
[1]
  Inhibitory rate (%) of urinary protein excretion: 27%
MMP-9
  IC50: 18.7 nM
MMP-2
  IC50: 2.02 nM
other
  melting point: 198 to 200 °C

## O=C(O)[C@@H](Cc1ccccc1)NS(=O)(=O)c1ccc(-n2nnc(-c3ccc(F)cc3)n2)cc1 [Compound 105]
MMP-9
  IC50: 304 nM
MMP-2
  IC50: 41.4 nM
other
  melting point: 190 to 192 °C

## CC(C)[C@@H](NS(=O)(=O)c1ccc(-n2nnc(-c3ccc(F)cc3)n2)cc1)C(=O)O [Compound 106]
MMP-9
  IC50: 104 nM
MMP-2
  IC50: 28.3 nM
other
  melting point: 204 to 205 °C

## CCc1ccc(-c2nnn(-c3ccc(S(=O)(=O)N[C@@H](C(=O)O)C(C)C)cc3)n2)cc1 [Compound 107]
MMP-9
  IC50: 8.25 nM
MMP-2
  IC50: 3.51 nM
other
  melting point: 186 to 187 °C

## CCc1ccc(-c2nnn(-c3ccc(S(=O)(=O)N[C@@H](Cc4ccccc4)C(=O)O)cc3)n2)cc1 [Compound 110]
MMP-9
  IC50: 94.7 nM
MMP-2
  IC50: 25.7 nM
other
  melting point: 188 to 190 °C

## O=C(O)[C@@H](Cc1c[nH]c2ccccc12)NS(=O)(=O)c1ccc(-n2nnc(-c3ccc(F)cc3)n2)cc1 [Compound 111]
MMP-9
  IC50: 104 nM
MMP-2
  IC50: 10.7 nM
other
  melting point: 113 to 115 °C

## CCc1ccc(-c2nnn(-c3ccc(S(=O)(=O)N[C@H](C(=O)O)C(C)C)cc3)n2)cc1 [Compound 112]
MMP-9
  IC50: 126 nM
MMP-2
  IC50: 28.4 nM
other
  melting point: 179 to 181 °C

## CCc1ccc(-c2nnn(-c3ccc(S(=O)(=O)N[C@H](CC(C)C)C(=O)O)cc3)n2)cc1 [Compound 113]
MMP-9
  IC50: 71.8 nM
MMP-2
  IC50: 5.7 nM
other
  melting point: 153 to 154 °C

## O=C(O)[C@@H](Cc1ccccc1)NS(=O)(=O)c1ccc(-n2nnc(-c3ccccc3)n2)cc1 [Compound 115]
MMP-9
  IC50: 4610 nM
MMP-2
  IC50: 181 nM
other
  melting point: 191 to 192 °C

## CCc1ccc(-c2nnn(-c3ccc(S(=O)(=O)N[C@H](C)C(=O)O)cc3)n2)cc1 [Compound 117]
MMP-9
  IC50: 31 nM
MMP-2
  IC50: 2.62 nM
other
  melting point: 155 to 157 °C

## CCOc1ccc(-c2nnn(-c3ccc(S(=O)(=O)N[C@@H](C(=O)O)C(C)C)cc3)n2)cc1 [Compound 118]
MMP-9
  IC50: 61.6 nM
MMP-2
  IC50: 2.16 nM
other
  melting point: 187 to 189 °C

## CC(C)[C@@H](NS(=O)(=O)c1ccc(-n2nnc(-c3ccc(N(C)C)cc3)n2)cc1)C(=O)O [Compound 119]
MMP-9
  IC50: 45.5 nM
MMP-2
  IC50: 1.69 nM
other
  melting point: 185 to 188 °C

## CSc1ccc(-c2nnn(-c3ccc(S(=O)(=O)N[C@@H](C(=O)O)C(C)C)cc3)n2)cc1 [Compound 120]
MMP-9
  IC50: 5.82 nM
MMP-2
  IC50: 0.919 nM
other
  melting point: 194 to 196 °C

## CCCCc1ccc(-c2nnn(-c3ccc(S(=O)(=O)N[C@@H](C(=O)O)C(C)C)cc3)n2)cc1 [Compound 121]
MMP-9
  IC50: 148 nM
MMP-2
  IC50: 0.561 nM
other
  melting point: 191 to 193 °C
